Test results: PubChem BioAssay AID179 (DTP/NCI, 2004)
Activity calls are given as the source filed them.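 How the source made its calls: active means compounds giving half or more protection of infected cells from virus-caused growth loss, again on retest; inactive means the rest.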

Test system: CEM cells HIV-1 protection, formazan growth assay
Assay: NCI AIDS Antiviral Assay
Conditions: for IC50: measured here: growth of uninfected CEM cells
Method in brief: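 Category rules: moderately active means at least 50% protection on retest, and confirmed active means 100% protection reproducibly. The underlying data came from a formazan growth assay in HIV-1-infected CEM cells.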

Compound	EC50 [µM]	IC50 [µM]	outcome
COC(=O)CNC(=O)Nc1cc(N2C(=O)ON3C2C(C)(C)N(O)C3(C)C)ccc1C (configuration not stated)	> 200	170	
Cn1c2ccccc2n2c3nc4ccccc4nc3c(C#N)c12			inactive
Cc1ccnc(NC(=O)NC2CCCCC2)c1	> 200	145	
CCC(C)C(CC)C(N)=O (configuration not stated)	> 200	> 200	
CC(C)CCCC(C)[C@H]1CCC2[C@@H]1CC[C@@H]1[C@@]3(C)CC[C@H](CCC=C(c4cc(Cl)c(OCC(=O)O)c(C(=O)O)c4)c4cc(Cl)c(OCC(=O)O)c(C(=O)O)c4)C[C@@H]3CC[C@@]21C (some centres not stated)	> 200	1.7	
Cc1ccc(/C=C2\CCCC(CN(C)C)C2=O)cc1 (configuration not stated)	> 200	0.617	
C1CN(c2nnc(N3CCC3)nn2)C1			inactive
O=C1NC(=O)C(CCN2CCCCC2)(c2ccccc2)C(=O)N1	> 200	> 200	
CC1C2CCC3C4CC=C5CC(N(C)C)CCC5(C)C4CCC32CN1C (configuration not stated)	> 200	41.7	
Cc1ccc(S(=O)(=O)SC(SCC(=O)c2ccc(Br)cc2)C(=O)c2ccc(Br)cc2)cc1 (configuration not stated)	> 40.7	38.9	
CC(C)(C)OC(=O)NC1CCCC1=O (configuration not stated)			inactive
CC(CC[C@@H](C)C1CCC2[C@@H]3CC(O)C4CC(O)[C@@H](O)C[C@]4(C)C3CC[C@@]21C)C(C)(C)C (some centres not stated)			inactive
Cc1ccc(OCC2OC(n3cnc4nc(N)nc(Cl)c43)CC2Oc2ccc(C)cc2)cc1 (configuration not stated)	> 200	> 200	
Cc1cn(C2CC(N=[N+]=[N-])C(COC(=O)CCCCCCCCCCCBr)O2)c(=O)[nH]c1=O (configuration not stated)		37.2	active
CC1(C)CC[P+](CC[P+]2(c3ccccc3)CCC(C)(C)c3ccccc32)(c2ccccc2)c2ccccc21 (configuration not stated)	> 407	64.6	
NC(CCCC(N)P(=O)(O)O)P(=O)(O)O (configuration not stated)			inactive
O=C(CNc1ccccc1Cl)Nn1c(-c2ccccc2)nc2ccccc2c1=O	> 200	30.2	
O=c1c(OC2OC(CO)C(O)C(O)C2OC2OCC(O)(CO)C2O)c(-c2ccc(O)cc2)oc2cc(O)cc(O)c12 (configuration not stated)	> 42.7	> 42.7	
O=C(O)C(F)(F)C(F)(F)C(F)(F)C(F)(F)C(F)(F)C(F)(F)C(F)(F)C(F)(F)F	> 200	105	
C=CCOC1=C(OCC=C)C(C2COC(C)(C)O2)OC1=O (configuration not stated)	> 200	70.8	
O=C1CC2(CCC(O)(c3cccs3)C(C(=O)c3cccs3)C2)C(=O)c2ccccc2N1 (configuration not stated)	> 200	> 200	
Cn1c(=O)c([N+](=O)[O-])c2[nH]ncn2c1=O	> 200	> 200	

Compound	EC50 [µM]	IC50 [µM]	outcome
COC(=O)CC1(O)C(/C=C/c2ccccc2)C(C(=O)OC)C(=O)C(C(=O)OC)C1C(=O)OC (configuration not stated)	> 50.1	37.2	
CS(=O)(=O)OCC(CCl)(CCl)CCl	> 933	661	
O=c1[nH]c(CO)nc(O)c1Cl	> 200	> 200	
O=C1CCC2=C(CCCC2=O)N1	> 200	> 200	
O=C(CCl)Nc1cccc2ccccc12	> 200	3.24	
CC(C)C(=O)/C=C/c1c(Cl)cccc1Cl			inactive
CC(=O)Nc1cc2c(cc1[N+](=O)[O-])-c1ccccc1C2=O	> 200	> 200	
COC(=O)N[C@@H]1C[C@H]2CC[C@]1(O[Si](C(C)C)(C(C)C)C(C)C)C(=O)C2	> 200	16.6	
CCc1nn(Cc2ccccc2)c2nc(C)c(CCc3ccccc3)c(Cl)c12	> 200	> 200	
Cc1n[n+](Cc2ccccc2)c2sc(N)nn12	> 200	40.7	
CC(=O)OCC12CC(OC(C)=O)C(C)=CC1O[C@@H]1C(O)[C@@H](O)[C@@]2(C)[C@@]12CO2 (some centres not stated)	> 66.1	0.0282	
CC(=O)n1c2ccccc2c2nc3nc(Oc4ccc(C)cc4)c4ccccc4c3cc21	> 6.61	> 6.61	
Cc1ccc(S(=O)(=O)/C(C#N)=C\N2CC(=O)NC2=S)cc1	> 200	> 200	
CC(=O)Nc1ccc(C(=O)NN2C(=O)C(Cl)C2c2ccc(Cl)cc2)cc1 (configuration not stated)	> 200	> 200	
Oc1ccc([Te]CCNCC[Te]c2ccc(O)cc2)cc1	> 10	5.89	
CCCCCCCCCCCCCCCc1cc(O)ccc1N=O	> 200	2.57	
CC1=N/C(=C\c2ccco2)C(=O)O1	> 537	> 537	
CN1CC(c2ccccc2)N(CCCCN2CC(c3ccccc3)N(C)CC2c2ccccc2)CC1c1ccccc1 (configuration not stated)	> 100	58.9	
Brc1ccc2[nH]cc(/C=N/N3CCCCCC3)c2c1	> 112	> 112	
Cc1cccc2c1C(=O)N(CC[P+](c1ccccc1)(c1ccccc1)c1ccccc1)C2=O	> 200	7.94	
CC(OC(C)(C)C)[C@H](NC(=O)OC(C)(C)C)C(=O)O (some centres not stated)	> 275	> 275	
COc1ccc(/C=C2\N=C(SC)NC2=O)cc1	> 200	107	

Compound	EC50 [µM]	IC50 [µM]	outcome
CC(C)OP(=O)(CN(C)/C(F)=N\C(F)(F)F)OC(C)C	> 200	> 200	
CC(C)(Oc1ccc(C2C[C@H]2Cl)cc1)C(=O)O (some centres not stated)	> 200	> 200	
N#C/C(=C/NC(=S)Nc1ccc(S(N)(=O)=O)cc1)C(N)=O	> 200	178	
COc1ccc(C2=C(N)c3cc(OC)ccc3C2=O)cc1	> 200	> 200	
CCOC(=O)C1(C(=O)OCC)CC=C(C)CC12C(=O)Nc1ccccc12 (configuration not stated)	> 72.4	> 72.4	
CCc1nc2ccc(N=NN(C)C)cc2[nH]1	85.1	107	
O=C1OC[C@H]2[C@@H]1[C@H]1O[C@@H]2C2=C(CCC2)C1=O	> 200	> 200	
CCN(CC)c1ccc2cc(-c3nc4ccccc4c(=O)[nH]3)c(=N)oc2c1	> 100	> 100	
CC(C)CCC[C@@H](C)C1CCC2[C@@H]3CC(O)C4C[C@@H](OS(=O)(=O)O)CC[C@]4(C)C3CC[C@@]21C (some centres not stated)	> 49	24.5	
CN(C)CCn1c2c3ccccc3ccc2c2oc(=O)c3ccccc3c21	> 18.2	8.51	
NC(=S)N/N=C(\Cc1nc2ccc(Cl)cc2[nH]c1=O)C(=O)Nc1ccc(Cl)cc1	> 41.7	> 41.7	
CC(=O)Oc1ccc2cc(Oc3ccc(Cl)cc3)c(=O)oc2c1	> 200	83.2	
CCc1cccc(C(C)C)c1NC(=O)C(=O)C1C(=O)NC(=O)NC1=O			inactive
CC(C)OC(=O)c1cc(NC(=O)C(C)(C)C)c(F)cc1Cl			inactive
COC(=O)N1[C@H]2Cc3c(OC)c(C)c(OC)c(OC)c3[C@@H]1/C(=C\c1cc(OC)c(OC)c(C)c1OC)N(Cc1ccccc1)C2=O			inactive
CNS(=O)(=O)NNS(=O)(=O)c1ccc(C)cc1	> 468	145	
COc1cc2c(cc1OC)C(O)[C@H](Br)C(C)(C)O2 (some centres not stated)	> 158	89.1	
N#C/C1=C(\N)CCSSSC1	> 457	22.9	
C[Si](C)(C)/C(I)=C/CO			inactive
COc1ccc(C(=O)Sc2c(-c3ccccc3)c(=O)n(-c3ccccc3)c(=S)n2-c2ccccc2)cc1	> 200	3.31	
CCOC(=O)C(=O)Nc1c(F)cc(F)cc1Br	> 813	> 813	
COC(=O)C(Cc1c[nH]c2ccccc12)NP(=O)(O)OCC1OC(n2cc(F)c(=O)[nH]c2=O)CC1O (configuration not stated)	> 200	> 200	

Compound	EC50 [µM]	IC50 [µM]	outcome
COc1ccc(C[C@H]2C(=O)OC[C@@H]2Cc2ccc(OC)c(OC)c2)cc1	> 200	24	
Nc1ncnc2c1ncn2[C@H]1C(CO)CC1(F)F (some centres not stated)	> 182	> 182	
CC(=O)CC(=O)ON(C)C(=O)Cc1ccccc1	> 1000	> 1000	
NC1=CN(Cc2ccccc2)C2=N/C(=C\c3ccco3)C(=O)N12	> 200	191	
C=CCNC(=S)N1CC(C)C(=O)Nc2ccccc21 (configuration not stated)	> 661	> 661	
NC(Cc1csc2ccccc12)C(=O)O (configuration not stated)	> 200	19.5	
CCCCCCCCCCCCCCCCNc1ccn(C2CC(O)C(COC(c3ccccc3)(c3ccccc3)c3ccc(OC)cc3)O2)c(=O)n1 (configuration not stated)	> 200	45.7	
CC(=O)N1CCc2cc(S(C)(=O)=O)c3c(c21)CCC3			inactive
Nc1ncnc2c1Sc1nc(Cl)ccc1N2	> 14.8	> 14.8	
CN(C)CCSc1cc(-c2ccccc2)c2ccccc2n1	> 200	6.31	
CCCCN(C(=O)c1ccccc1)C1CCC(=O)c2[nH]c3ccccc3c21 (configuration not stated)	> 200	17	
COC(=O)[C@]1(c2ccc(N(C)C)cc2OC)C[C@@H]2CCCN(CCc3c1[nH]c1ccccc31)C2			inactive
COC(=O)C1(CCCCCBr)CCCCCCCCCCC1=O (configuration not stated)	> 200	35.5	
COC(=O)c1nc(NN)[nH]c(=O)c1CCCCCc1c(C(=O)OC)[nH]c(NN)cc1=O	> 6.31	> 6.31	
CC1(C)CC(=O)C(C=NC(=S)C(N)=S)=C(O)C1	> 200	37.2	
N#Cc1c(N2CCCC2)ncn(Cc2ccccc2)c1=S	> 200	> 200	
Cc1ccc(C)n1-c1ccccc1C1SCCCS1	> 200	195	
N#CC(c1ccccc1)N(CCc1ccccc1)C(=O)c1ccc(C(=O)N(CCc2ccccc2)C(C#N)c2ccccc2)cc1 (configuration not stated)	> 200	28.2	
Cc1ccc(S(=O)(=O)/C(C#N)=C/NC(=S)Nc2ccc(S(N)(=O)=O)cc2)cc1			inactive
O=C(NCCCCCCNC(=O)n1cc(F)c(=O)[nH]c1=O)NCCCOCCOCCCNC(=O)C(O)C(O)C(O)C(O)CO (configuration not stated)			inactive
OC1(c2ccc(Cl)cc2)c2ccccc2C2=Nc3ccccc3CN21 (configuration not stated)	> 200	115	
C=CC(C)(C)[C@@]12CC3C(=O)N[C@@H](CC(C)C)C(=O)N3[C@@H]1N(C(C)=O)c1ccccc12 (some centres not stated)	> 30.2	> 30.2	
